Consider 15 compounds from patent US20240199676A1, “ANTIVIRAL COMPOUNDS AND METHODS OF MAKING AND USING THE SAME” (Gilead Sciences, Inc., priority 2022, published 2024).

In test [1] the test system is Respiratory syncytial virus recombinant with luciferase (RSV-Luc5) in HEp-2 cells. The test is described as follows: HEp-2 RSV-Luc5 384-well Assay (EC50 RSVFLUC Hep2-384 v2, Ex. V). In kind it is cell-based. The settings on record: human respiratory syncytial virus, HEp-2, 72 h, read-out: EC50 RSV FLuc Hep-2 384 V2 (per Ex. V). From the text: Example V: HEp-2 RSV-Luc5 384-well Assay (EC50 RSVFLUC Hep2-384 v2)
HEp-2 cell line was purchased from ATCC (Manassas, VA Cat #CCL-23) and maintained in Dulbecco's […] (DMEM) (Corning, New York, NY, Cat #15-018CM) supplemented with 10% fetal bovine serum (FBS) (Hyclone, Logan, UT, Cat #SH30071-03) and 1× Penicillin-Streptonycin-L-Glutamine (Corning, New York, NY, Cat #30-009-CI). Cells were passaged 2 times per week to maintain sub-confluent densities and were used for experiments at passage 5-20. Respiratory syncytial virus recombinant with luciferase (RSV-Luc5) (≥1 ×107 TCID50/ml) was purchased from Microbiologics (Saint Cloud, MN). Viral replication was determined in HEp-2 cells in the following manner.
Compounds are prepared in 100% DMSO in 384-well polypropylene plates (Greiner, Monroe, NC, Cat #784201) with 8 compounds per plate in grouped replicates of 4 at 10 serially diluted concentrations (1:3). The serially diluted compounds were transferred to low dead volume Echo plates (Labcyte, Sunnyvale, CA, Cat #LP-0200).
The test compounds were spotted to 384-well assay plates (Greiner, Monroe, NC, Cat#781091) at 200 nL per well. HEp-2 cells were harvested and suspended in DMEM (supplemented with 10% FBS and 1× Penicillin-Streptonycin-L-Glutamine) and seeded to the pre-spotted assay plates at 4,000 cells per well in 30 μL. RSV-Luc5 viruses were diluted in DMEM (supplemented with 10% FBS and 1× Penicillin-Streptomycin-L-Glutamine) at 200,000 Infectious Units (IU) per mL and 10 μL per well was added to the assay plates containing cells and compounds, for an MOI=0.5. The assay plates were incubated for 3 days at 37° C. and 5% CO2. At the end of incubation, One-Glo reagent (Promega, Madison, WI, Cat #E6120) was prepared. The assay plates and One-Glo reagent were equilibrated to room temperature for at least 15 minutes. 40 μL per well of One-Glo reagent was added and the plates were incubated at room temp for 15 minutes before reading the luminescence signal on an EnVision multimode plate reader (Perkin Elmer, Waltham, MA). Remdesivir was used as positive control and DMSO was used as negative control. Values were normalized to the positive and negative controls (as 0% and 100% replication, respectively) and data was fitted using non-linear regression analysis by Gilead's dose response tool. The EC50 value for each compound was then determined as the concentration reducing the viral replication by 50%.

Test [2] relates to Human Rhinovirus 16 (HRV16) in H1-HeLa cells. The test is described as follows: H1-HeLa HRV-CTG 384-well Assay (Ex. Y), HRV16. In kind it is cell-based. Particulars: Rhinovirus A, 96 h; H1-HeLa cells, HRV16 MOI 0.25, 4 days, Celltiter-Glo; read-out: EC50 H1-HeLa_HRV16_HRV-CTG 384-well Assay (per Ex. Y). An excerpt: Example Y: H1-HeLa HRV-CTG 384-well Assay
H1-Hela cell line (ATCC, Manassas, VA, Cat #CRL-1958) was maintained in Dulbecco's […] (DMEM) (Corning, New York, NY, Cat #15-018CM) supplemented with 10% fetal bovine serum (FBS) (Hyclone, Logan, UT, Cat #SH30071-03), and 1× Penicillin-Streptomycin-L-Glutamine (Corning, New York, NY, Cat #30-009-CI). Cells were passaged 2 times per week to maintain sub-confluent densities and were used for experiments at passage 5-30. The Human Rhinovirus 1B (HRV1B) (ATCC, Manassas, VA, Cat #VR-1645) , Human Rhinovirus 14 (HRV14) (ATCC, Manassas, VA, Cat #VR-284), and Human Rhinovirus 16 (HRV16) (ATCC, Manassas, VA, Cat #BR-283) was obtained through ATCC. Viral infection was monitored by determining viability of H1-HeLa cells as described below.
Test molecules are prepared in 100% DMSO in 384-well polypropylene plates (Greiner, Monroe, NC, Cat #784201) with 8 compounds per plate in grouped replicates of 4 at 10 serially diluted concentrations (1:3). The serially diluted compounds were transferred to low dead volume Echo plates (Labcyte, Sunnyvale, CA, Cat #LP-0200).
The test compounds were spotted to 384-well assay plates (Greiner, Monroe, NC, Cat#781091) at 200 nL per well using an Echo acoustic dispenser (Labcyte, Sunnyvale, CA). H1-HeLa cells were harvested and suspended in DMEM (supplemented with 2% FBS and 1× Penicillin-Streptomycin-L-Glutamine) and seeded to the pre-spotted assay plates at 5,000 cells per well in 30 μL. HRV1B, HRV14, and HRV16 was diluted in DMEM (supplemented with 2% FBS and 1× Penicillin-Streptomycin-L-Glutamine) at 97.1 million Infectious Units (IU) per mL, 151 million IU per mL and 221 million IU per mL respectively. 10 μL of virus per well was added to the assay plates containing cells and compounds, for an MOI of 0.5, 1.0, and 0.25 respectively. The assay plates were incubated for 4 days at 37° C. and 5% CO2. At the end of incubation, Celltiter-Glo (Promega, Madison, WI, Cat #(Ga7573) was prepared. The assay plates and Celltiter-Glo reagent were equilibrated to room temperature for at least 15 minutes. 40 μL per well of Celltiter-Glo reagent was added and the plates were incubated at room temperature for 15 minutes before reading the luminescence signal on an EnVision multimode plate reader (Perkin Elmer, Waltham, MA). Rupintrivir was used as positive control and DMSO was used as negative control. Values were normalized to the positive and negative controls (as 0% and 100% replication, respectively) and data was fitted using non-linear regression analysis by Gilead's dose response tool. The EC50 value for each compound was defined as the concentration reducing viral replication by 50%.
A general note: In ATP-based viability assays light output follows the ATP content of the culture.

As for `CC(C)CC(=O)OC[C@@]1(C#N)O[C@@H](c2ccc3c(N)ncnn23)[C@H](O)[C@@H]1O` [Compound 3, ((2R,3S,4R,5S)-5-(4-aminopyrrolo[2,1-f][1,2,4]triazin-7-yl)-2-cyano-3,4-dihydroxytetrahydrofuran-2-yl)methyl 3-methylbutanoate], the EC50 – broadly, the concentration that produces a half-maximal response – in test [1] was determined as 26.4 µM; in test [2], 13.2 µM.

On to `CC1(C(=O)OC[C@@]2(C#N)O[C@@H](c3ccc4c(N)ncnn34)[C@H](O)[C@@H]2O)CCC1` [Compound 24, ((2R,3S,4R,5S)-5-(4-aminopyrrolo[2,1-f][1,2,4]triazin-7-yl)-2-cyano-3,4-dihydroxytetrahydrofuran-2-yl)methyl 1-methylcyclobutane-1-carboxylate], for which the results for the EC50 in test [1] and in test [2] were 12 µM and 8.9 µM, respectively.

On to `N#C[C@]1(COC(=O)C2CCCCC2)O[C@@H](c2ccc3c(N)ncnn23)[C@H](O)[C@@H]1O` [Compound 19, ((2R,3S,4R,5S)-5-(4-aminopyrrolo[2,1-f][1,2,4]triazin-7-yl)-2-cyano-3,4-dihydroxytetrahydrofuran-2-yl)methyl cyclohexanecarboxylate], for which the EC50 was determined as 18 µM in test [1] and 9.23 µM in test [2].

`CC1(C)CC(C(=O)OC[C@@]2(C#N)O[C@@H](c3ccc4c(N)ncnn34)[C@H](O)[C@@H]2O)C1` [Compound 17, ((2R,3S,4R,5S)-5-(4-aminopyrrolo[2,1-f][1,2,4]triazin-7-yl)-2-cyano-3,4-dihydroxytetrahydrofuran-2-yl)methyl 3,3-dimethylcyclobutane-1-carboxylate]: the EC50 in test [1] was 19.7 µM; in test [2] it was 7.57 µM.

Regarding `CC(C)(CF)C(=O)OC[C@@]1(C#N)O[C@@H](c2ccc3c(N)ncnn23)[C@H](O)[C@@H]1O` [Compound 29, ((2R,3S,4R,5S)-5-(4-aminopyrrolo[2,1-f][1,2,4]triazin-7-yl)-2-cyano-3,4-dihydroxytetrahydrofuran-2-yl)methyl 3-fluoro-2,2-dimethylpropanoate], the concentration for a half-maximal effect (EC50) in test [1] was found to be 28.8 µM; in test [2] it was 22.7 µM.

On to `CC1(C(=O)OC[C@@]2(C#N)O[C@@H](c3ccc4c(N)ncnn34)[C@H](O)[C@@H]2O)CC1` [Compound 15, ((2R,3S,4R,5S)-5-(4-aminopyrrolo[2,1-f][1,2,4]triazin-7-yl)-2-cyano-3,4-dihydroxytetrahydrofuran-2-yl)methyl 1-methylcyclopropane-1-carboxylate], for which the EC50 in test [1] came to 31.6 µM; in test [2], 31.1 µM.

Regarding `[H]/N=c1/c2ccc([C@@H]3O[C@](C#N)(CO)[C@@H](O)[C@H]3O)n2ncn1COC(=O)C(C)C` [Compound 34, (7-((2S,3R,4S,5R)-5-cyano-3,4-dihydroxy-5-(hydroxymethyl)tetrahydrofuran-2-yl)-4-iminopyrrolo[2,1-f][1,2,4]triazin-3(4H)-yl)methyl isobutyrate], the concentration giving a half-maximal response (EC50) in test [1] is greater than 50 µM; in test [2], 50 µM.

Regarding `CC(C)(C)C(=O)OC[C@@]1(C#N)O[C@@H](c2ccc3c(N)ncnn23)[C@H](O)[C@@H]1O` [Compound 10, ((2R,3S,4R,5S)-5-(4-aminopyrrolo[2,1-f][1,2,4]triazin-7-yl)-2-cyano-3,4-dihydroxytetrahydrofuran-2-yl)methyl pivalate], the values for the concentration for a half-maximal effect (EC50) in test [1] and in test [2] were 21.8 µM and 14.3 µM, respectively.

For `CC[C@@H](C)C(=O)OC[C@@]1(C#N)O[C@@H](c2ccc3c(N)ncnn23)[C@H](O)[C@@H]1O` [Compound 37, ((2R,3S,4R,5S)-5-(4-aminopyrrolo[2,1-f][1,2,4]triazin-7-yl)-2-cyano-3,4-dihydroxytetrahydrofuran-2-yl)methyl (R)-2-methylbutanoate], the EC50 was found to be 14.8 µM in test [1] and 9.78 µM in test [2].

As for `CC(=O)OC[C@@]1(C#N)O[C@@H](c2ccc3c(N)ncnn23)[C@H](O)[C@@H]1O` [Compound 4, ((2R,3S,4R,5S)-5-(4-aminopyrrolo[2,1-f][1,2,4]triazin-7-yl)-2-cyano-3,4-dihydroxytetrahydrofuran-2-yl)methyl acetate], the EC50 came out at 15.7 µM in test [1] and 10.1 µM in test [2].

Regarding `CC1(CC(=O)OC[C@@]2(C#N)O[C@@H](c3ccc4c(N)ncnn34)[C@H](O)[C@@H]2O)CCC1` [Compound 33, ((2R,3S,4R,5S)-5-(4-aminopyrrolo[2,1-f][1,2,4]triazin-7-yl)-2-cyano-3,4-dihydroxytetrahydrofuran-2-yl)methyl 2-(1-methylcyclobutyl)acetate], the EC50 came to 23.4 µM in test [1] and 50 µM in test [2].

On to `CC(=O)OC[C@@]1(C#N)O[C@@H](c2ccc3c(NC(=O)C(C)C)ncnn23)[C@H](O)[C@@H]1O` [Compound 23, ((2R,3S,4R,5S)-2-cyano-3,4-dihydroxy-5-(4-isobutyramidopyrrolo[2,1-f][1,2,4]triazin-7-yl)tetrahydrofuran-2-yl)methyl acetate], for which the values for the 50% effective concentration (EC50) in test [1] and in test [2] were 33.1 µM and 50 µM, respectively.

As to `N#C[C@]1(COC(=O)C2CC2)O[C@@H](c2ccc3c(N)ncnn23)[C@H](O)[C@@H]1O` [Compound 7, ((2R,3S,4R,5S)-5-(4-aminopyrrolo[2,1-f][1,2,4]triazin-7-yl)-2-cyano-3,4-dihydroxytetrahydrofuran-2-yl)methyl cyclopropanecarboxylate], the EC50 in test [1] turned out to be 50 µM; in test [2], 30.7 µM.

Take `CC(C)(C)CCC(=O)OC[C@@]1(C#N)O[C@@H](c2ccc3c(N)ncnn23)[C@H](O)[C@@H]1O` [Compound 36, ((2R,3S,4R,5S)-5-(4-aminopyrrolo[2,1-f][1,2,4]triazin-7-yl)-2-cyano-3,4-dihydroxytetrahydrofuran-2-yl)methyl 4,4-dimethylpentanoate]: the figures for the EC50 in test [1] and in test [2] were 11.8 µM and 8.03 µM, respectively.

Consider `CC(C)C(=O)OC[C@@]1(C#N)O[C@@H](c2ccc3c(N)ncnn23)[C@H](O)[C@@H]1O` [Compound 1, ((2R,3S,4R,5S)-5-(4-aminopyrrolo[2,1-f][1,2,4]triazin-7-yl)-2-cyano-3,4-dihydroxytetrahydrofuran-2-yl)methyl isobutyrate], for which the EC50 in test [1] was 15 µM; in test [2], 9.31 µM.
